Experimental data from ChEMBL document CHEMBL1137965, “Crucial role of the peroxyketal function for antimalarial activity in the G-factor series” (Bioorg Med Chem Lett, 2004).

What follows are compounds tested on Plasmodium falciparum (assay: In vitro inhibition of Plasmodium falciparum in [3H]hypoxanthine incorporation assay).
Format: functional, organism-based
`CO[C@]12OO[C@](C)(CO)C=C1C(=O)C(C)(C)C(=O)C2(C)C` was tested, and the IC50 was 40 µM.
In the case of `CC1(C)C(=O)C2=C[C@](C)(CO)OO[C@]2(O)C(C)(C)C1=O`, the IC50 is reported as over 100 µM.
Compound `CO[C@]12OO[C@@](C)(CO)C=C1C(=O)C(C)(C)C(=O)C2(C)C` has an IC50 of 1.4 µM.
`CO[C@]12OO[C@@](C)(CO[Si](c3ccccc3)(c3ccccc3)C(C)(C)C)C=C1C(=O)C(C)(C)C(=O)C2(C)C` was tested, and the IC50 was 1.5 µM.
In the case of `CC1(C)C(=O)C2=C(OO[C@]3(C)CO[C@H]23)C(C)(C)C1=O`, the IC50 is reported as over 100 µM.
For `CC1(C)C(=O)C2=C[C@@](C)(CO)OO[C@]2(O)C(C)(C)C1=O`, the IC50 was over 100 µM.
Work on `C[C@@H]1CC[C@H]2[C@@H](C)C(=O)O[C@@H]3O[C@@]4(C)CC[C@@H]1[C@]32OO4` [ARTEMISININ] yielded an IC50 of 0.015 µM.
In the case of `CO[C@]12OOC(C)(C)C=C1C(=O)C(C)(C)C(=O)C2(C)C`, the IC50 is reported as 0.28 µM.
`CO[C@]12OO[C@](C)(CO[Si](c3ccccc3)(c3ccccc3)C(C)(C)C)C=C1C(=O)C(C)(C)C(=O)C2(C)C` gave an IC50 of 1.4 µM.
With `CC1(C)C=C2C(=O)C(C)(C)C(=O)C(C)(C)[C@@]2(O)OO1` the IC50 was 36 µM.
With `CC(=O)OC12OOC(C)(C)C=C1C(=O)C(C)(C)C(=O)C2(C)C` (configuration not stated) the IC50 was 20.5 µM.
`CC1(C)C=C2C(=O)C(C)(C)C(=O)C(C)(C)C2(F)OO1` (configuration not stated) showed an IC50 of over 100 µM.
